Positions of bridges follow the written chain, without caps; N, C: chain ends. Non-standard residues stand in square brackets, D forms with d. Residues, ends and D or L forms follow the SMILES beside them. *: point of attachment. Trp(1-CH2COOH) = N[C@@H](Cc1cn(CC(=O)O)c2ccccc12)C(=O)O; Phe(3-COOH) = N[C@@H](Cc1cccc(C(=O)O)c1)C(=O)O; NH(CH2CH2O)8Me = COCCOCCOCCOCCOCCOCCOCCOCCN*; NMePhe(3-Cl) = CN[C@@H](Cc1cccc(Cl)c1)C(=O)O; 3Pal(6-NH2) = Nc1ccc(C[C@H](N)C(=O)O)cn1; NMeY = CN[C@@H](Cc1ccc(O)cc1)C(=O)O; 3Pal = N[C@@H](Cc1cccnc1)C(=O)O; 4Pal = N[C@@H](Cc1ccncc1)C(=O)O; PEG4 = NCCOCCOCCOCCOCCC(=O)O; Carboxymethyl = O=C(O)C*
Target: T1, human transferrin receptor (hTfR) (Homo sapiens, UniProt P02786)
T1 construct: made in house
Assay: Evaluation of molecular interaction between transferrin receptor (hTfR) and peptide using surface plasmon resonance (SPR)
Format: binding
Conditions: surface plasmon resonance, binding to hTfR; KD class symbol; read-out: SPR (KD value)
Outline: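 Recombinant hTfR dimer (0.5 μM) immobilized on Ni-loaded NTA chip via EDC/NHS, ethanolamine-capped. Peptides at 5–100 nM in HEPES pH 8.0 buffer with 150 mM NaCl, 0.05% Tween 20, 0.1% BSA, 1.0% DMSO, flowed by single-cycle kinetics; KD from least-squares fit of sensorgrams.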

T1 sequence (P02786 89-760 limits assumed): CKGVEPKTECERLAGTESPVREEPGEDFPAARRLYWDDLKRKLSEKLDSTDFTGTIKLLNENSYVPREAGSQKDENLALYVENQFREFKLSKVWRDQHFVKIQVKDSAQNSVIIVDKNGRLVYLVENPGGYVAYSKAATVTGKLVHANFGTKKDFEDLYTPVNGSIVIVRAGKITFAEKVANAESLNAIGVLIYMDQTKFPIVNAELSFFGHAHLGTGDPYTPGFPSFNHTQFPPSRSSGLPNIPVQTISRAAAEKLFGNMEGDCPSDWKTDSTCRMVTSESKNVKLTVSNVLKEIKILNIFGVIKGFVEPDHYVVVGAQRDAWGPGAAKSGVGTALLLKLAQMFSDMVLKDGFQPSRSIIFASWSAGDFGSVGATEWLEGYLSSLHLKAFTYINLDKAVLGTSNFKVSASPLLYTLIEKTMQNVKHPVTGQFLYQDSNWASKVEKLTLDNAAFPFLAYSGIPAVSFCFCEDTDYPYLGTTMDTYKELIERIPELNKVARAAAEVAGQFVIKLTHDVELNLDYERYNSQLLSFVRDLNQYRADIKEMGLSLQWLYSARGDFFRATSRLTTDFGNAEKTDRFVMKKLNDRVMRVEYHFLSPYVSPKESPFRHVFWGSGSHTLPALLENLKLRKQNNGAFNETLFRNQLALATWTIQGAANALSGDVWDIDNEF

| Kd [µM] | Compound |
| --- | --- |
| 0.001 to 0.1 | CC[C@H](C)[C@@H]1NC(=O)[C@H](Cc2cccnc2)NC(=O)[C@H](Cc2ccc(O)cc2)NC(=O)[C@H](CC(N)=O)NC(=O)[C@H](Cc2c[nH]c3ccccc23)NC(=O)[C@H](C(C)C)NC(=O)[C@H](Cc2cccc(Cl)c2)N(C)C(=O)[C@H](C(C)C)NC(=O)[C@H](C)NC(=O)CSC[C@@H](C(=O)NCC(=O)N[C@H](CCC(=O)O)C(=O)N[C@H](CCC(=O)O)C(=O)N[C@H](CCC(=O)O)C(=O)N[C@H](CO)C(=O)N[C@H](CO)C(=O)N[C@@H](CCCCN=[N+]=[N-])C(N)=O)NC(=O)[C@H](Cc2ccc(O)cc2)N(C)C(=O)[C@H](Cc2ccncc2)NC(=O)[C@H](CCCNC(=N)N)NC(=O)[C@H](CCCNC(=N)N)NC(=O)[C@H]([C@@H](C)CC)NC1=O [compound 69] |
| 0.001 to 0.1 | CC[C@H](C)[C@@H]1NC(=O)[C@H](Cc2ccc(OC)cc2)NC(=O)[C@H](Cc2ccc(O)cc2)NC(=O)[C@H](CC(N)=O)NC(=O)[C@H](Cc2cn(CC(=O)O)c3ccccc23)NC(=O)[C@H](C(C)C)NC(=O)[C@H](Cc2cccc(Cl)c2)N(C)C(=O)[C@H](C(C)C)NC(=O)[C@H](C)NC(=O)CSC[C@@H](C(=O)NCCOCCOCCOCCOCCC(N)=O)NC(=O)[C@H](Cc2ccc(O)cc2)N(C)C(=O)[C@H](Cc2ccccc2)NC(=O)[C@H](CCC(=O)NCCOCCOCCOCCOCCOCCOCCOCCOC)NC(=O)[C@H](CCCNC(=N)N)NC(=O)[C@H]([C@@H](C)CC)NC1=O [compound 70] |
| 0.001 to 0.1 | CC[C@H](C)[C@@H]1NC(=O)[C@H](Cc2ccc(OCC(=O)O)cc2)NC(=O)[C@H](Cc2ccc(N)nc2)NC(=O)[C@H](CC(N)=O)NC(=O)[C@H](Cc2cn(CC(=O)O)c3ccccc23)NC(=O)[C@H](C(C)C)NC(=O)[C@H](Cc2cccc(Cl)c2)N(C)C(=O)[C@H](C(C)C)NC(=O)[C@H](C)NC(=O)CSC[C@@H](C(=O)NCCOCCOCCOCCOCCC(N)=O)NC(=O)[C@H](Cc2ccc(O)cc2)N(C)C(=O)[C@H](Cc2ccccc2)NC(=O)[C@H](CCCNC(=N)N)NC(=O)[C@H](CCCNC(=N)N)NC(=O)[C@H]([C@@H](C)CC)NC1=O [compound 71] ({CH2CO}-AV[NMePhe(3-Cl)]V[Trp(1-CH2COOH)]N[3Pal(6-NH2)]Y(Carboxymethyl)IIRRF[NMeY]C[PEG4]-NH2; thioether N-15) |
| 0.001 to 0.1 | CC[C@H](C)[C@@H]1NC(=O)[C@H](Cc2ccc(OC)cc2)NC(=O)[C@H](Cc2ccc(N)nc2)NC(=O)[C@H](CC(N)=O)NC(=O)[C@H](Cc2cn(CC(=O)O)c3ccccc23)NC(=O)[C@H](C(C)C)NC(=O)[C@H](Cc2cccc(Cl)c2)N(C)C(=O)[C@H](C(C)C)NC(=O)[C@H](C)NC(=O)CSC[C@@H](C(=O)NCCOCCOCCOCCOCCC(N)=O)NC(=O)[C@H](Cc2ccc(O)cc2)N(C)C(=O)[C@H](Cc2cccc(C(=O)O)c2)NC(=O)[C@H](CCCNC(=N)N)NC(=O)[C@H](CCCNC(=N)N)NC(=O)[C@H]([C@@H](C)CC)NC1=O [compound 72] ({CH2CO}-AV[NMePhe(3-Cl)]V[Trp(1-CH2COOH)]N[3Pal(6-NH2)]Y(Me)IIRR[Phe(3-COOH)][NMeY]C[PEG4]-NH2; thioether N-15) |
| 0.001 to 0.1 | CC[C@H](C)[C@@H]1NC(=O)[C@H](Cc2cccnc2)NC(=O)[C@H](Cc2ccc(O)cc2)NC(=O)[C@H](CC(N)=O)NC(=O)[C@H](Cc2cn(CC(=O)O)c3ccccc23)NC(=O)[C@H](C(C)C)NC(=O)[C@H](Cc2cccc(Cl)c2)N(C)C(=O)[C@H](C(C)C)NC(=O)[C@H](C)NC(=O)CSC[C@@H](C(=O)NCCOCCOCCOCCOCCC(N)=O)NC(=O)[C@H](Cc2ccc(O)cc2)N(C)C(=O)[C@H](Cc2ccccc2)NC(=O)[C@H](CCC(=O)NCCOCCOCCOCCOCCOCCOCCOCCOC)NC(=O)[C@H](CCCNC(=N)N)NC(=O)[C@H]([C@@H](C)CC)NC1=O [compound 73] ({CH2CO}-AV[NMePhe(3-Cl)]V[Trp(1-CH2COOH)]NY[3Pal]IIRE(NH(CH2CH2O)8Me)F[NMeY]C[PEG4]-NH2; thioether N-15) |
| 0.001 to 0.1 | CC[C@H](C)[C@@H]1NC(=O)[C@H](Cc2cccnc2)NC(=O)[C@H](Cc2ccc(O)cc2)NC(=O)[C@H](CC(N)=O)NC(=O)[C@H](Cc2cn(CC(=O)O)c3ccccc23)NC(=O)[C@H](C(C)C)NC(=O)[C@H](Cc2cccc(Cl)c2)N(C)C(=O)[C@H](C(C)C)NC(=O)[C@H](C)NC(=O)CSC[C@@H](C(=O)NCCOCCOCCOCCOCCC(N)=O)NC(=O)[C@H](Cc2ccc(O)cc2)N(C)C(=O)[C@H](Cc2cccc(C(=O)O)c2)NC(=O)[C@H](CCCNC(=N)N)NC(=O)[C@H](CCCNC(=N)N)NC(=O)[C@H]([C@@H](C)CC)NC1=O [compound 74] ({CH2CO}-AV[NMePhe(3-Cl)]V[Trp(1-CH2COOH)]NY[3Pal]IIRR[Phe(3-COOH)][NMeY]C[PEG4]-NH2; thioether N-15) |
| 0.001 to 0.1 | CC[C@H](C)[C@@H]1NC(=O)[C@H](Cc2ccc(OCC(=O)O)cc2)NC(=O)[C@H](Cc2ccc(O)cc2)NC(=O)[C@H](CC(N)=O)NC(=O)[C@H](Cc2cn(CC(=O)O)c3ccccc23)NC(=O)[C@H](C(C)C)NC(=O)[C@H](Cc2cccc(Cl)c2)N(C)C(=O)[C@H](C(C)C)NC(=O)[C@H](C)NC(=O)CSC[C@@H](C(=O)NCCOCCOCCOCCOCCC(N)=O)NC(=O)[C@H](Cc2ccc(O)cc2)N(C)C(=O)[C@H](Cc2cccc(C(=O)O)c2)NC(=O)[C@H](CCCNC(=N)N)NC(=O)[C@H](CCCNC(=N)N)NC(=O)[C@H]([C@@H](C)CC)NC1=O [compound 75] |
| 0.001 to 0.1 | CC[C@H](C)[C@@H]1NC(=O)[C@H](Cc2ccc(OCC(=O)O)cc2)NC(=O)[C@H](Cc2ccc(O)cc2)NC(=O)[C@H](CC(N)=O)NC(=O)[C@H](Cc2cn(CC(=O)O)c3ccccc23)NC(=O)[C@H](C(C)C)NC(=O)[C@H](Cc2cccc(Cl)c2)N(C)C(=O)[C@H](C(C)C)NC(=O)[C@H](C)NC(=O)CSC[C@@H](C(=O)NCCOCCOCCOCCOCCC(N)=O)NC(=O)[C@H](Cc2ccc(O)cc2)N(C)C(=O)[C@H](Cc2ccncc2)NC(=O)[C@H](CCCNC(=N)N)NC(=O)[C@H](CCCNC(=N)N)NC(=O)[C@H]([C@@H](C)CC)NC1=O [compound 76] |
| 0.001 to 0.1 | CC[C@H](C)[C@@H]1NC(=O)[C@H](Cc2ccc(OC)cc2)NC(=O)[C@H](Cc2ccc(O)cc2)NC(=O)[C@H](CC(N)=O)NC(=O)[C@H](Cc2cn(CC(=O)O)c3ccccc23)NC(=O)[C@H](C(C)C)NC(=O)[C@H](Cc2cccc(Cl)c2)N(C)C(=O)[C@H](C(C)C)NC(=O)[C@H](C)NC(=O)CSC[C@@H](C(=O)NCCOCCOCCOCCOCCC(N)=O)NC(=O)[C@H](Cc2ccc(O)cc2)N(C)C(=O)[C@H](Cc2cccc(C(=O)O)c2)NC(=O)[C@H](CCC(=O)NCCOCCOCCOCCOCCOCCOCCOCCOC)NC(=O)[C@H](CCCNC(=N)N)NC(=O)[C@H]([C@@H](C)CC)NC1=O [compound 77] ({CH2CO}-AV[NMePhe(3-Cl)]V[Trp(1-CH2COOH)]NYY(Me)IIRE(NH(CH2CH2O)8Me)[Phe(3-COOH)][NMeY]C[PEG4]-NH2; thioether N-15) |
| 0.001 to 0.1 | CC[C@H](C)[C@@H]1NC(=O)[C@H](Cc2ccc(OC)cc2)NC(=O)[C@H](Cc2ccc(O)cc2)NC(=O)[C@H](CC(N)=O)NC(=O)[C@H](Cc2cn(CC(=O)O)c3ccccc23)NC(=O)[C@H](C(C)C)NC(=O)[C@H](Cc2cccc(Cl)c2)N(C)C(=O)[C@H](C(C)C)NC(=O)[C@H](C)NC(=O)CSC[C@@H](C(=O)NCCOCCOCCOCCOCCC(N)=O)NC(=O)[C@H](Cc2ccc(O)cc2)N(C)C(=O)[C@H](Cc2ccncc2)NC(=O)[C@H](CCC(=O)NCCOCCOCCOCCOCCOCCOCCOCCOC)NC(=O)[C@H](CCCNC(=N)N)NC(=O)[C@H]([C@@H](C)CC)NC1=O [compound 78] ({CH2CO}-AV[NMePhe(3-Cl)]V[Trp(1-CH2COOH)]NYY(Me)IIRE(NH(CH2CH2O)8Me)[4Pal][NMeY]C[PEG4]-NH2; thioether N-15) |
| 0.001 to 0.1 | CC[C@H](C)[C@@H]1NC(=O)[C@H](Cc2cccnc2)NC(=O)[C@H](Cc2ccc(N)nc2)NC(=O)[C@H](CC(N)=O)NC(=O)[C@H](Cc2cn(CC(=O)O)c3ccccc23)NC(=O)[C@H](C(C)C)NC(=O)[C@H](Cc2cccc(Cl)c2)N(C)C(=O)[C@H](C(C)C)NC(=O)[C@H](C)NC(=O)CSC[C@@H](C(=O)NCCOCCOCCOCCOCCC(N)=O)NC(=O)[C@H](Cc2ccc(O)cc2)N(C)C(=O)[C@H](Cc2cccc(C(=O)O)c2)NC(=O)[C@H](CCCNC(=N)N)NC(=O)[C@H](CCCNC(=N)N)NC(=O)[C@H]([C@@H](C)CC)NC1=O [compound 79] ({CH2CO}-AV[NMePhe(3-Cl)]V[Trp(1-CH2COOH)]N[3Pal(6-NH2)][3Pal]IIRR[Phe(3-COOH)][NMeY]C[PEG4]-NH2; thioether N-15) |
| 0.001 to 0.1 | CC[C@H](C)[C@@H]1NC(=O)[C@H](Cc2ccc(OCC(=O)O)cc2)NC(=O)[C@H](Cc2ccc(N)nc2)NC(=O)[C@H](CC(N)=O)NC(=O)[C@H](Cc2cn(CC(=O)O)c3ccccc23)NC(=O)[C@H](C(C)C)NC(=O)[C@H](Cc2cccc(Cl)c2)N(C)C(=O)[C@H](C(C)C)NC(=O)[C@H](C)NC(=O)CSC[C@@H](C(=O)NCCOCCOCCOCCOCCC(N)=O)NC(=O)[C@H](Cc2ccc(O)cc2)N(C)C(=O)[C@H](Cc2ccncc2)NC(=O)[C@H](CCCNC(=N)N)NC(=O)[C@H](CCCNC(=N)N)NC(=O)[C@H]([C@@H](C)CC)NC1=O [compound 80] |
| 0.001 to 0.1 | CC[C@H](C)[C@@H]1NC(=O)[C@H](Cc2ccc(OCC(=O)O)cc2)NC(=O)[C@H](Cc2ccc(N)nc2)NC(=O)[C@H](CC(N)=O)NC(=O)[C@H](Cc2cn(CC(=O)O)c3ccccc23)NC(=O)[C@H](C(C)C)NC(=O)[C@H](Cc2cccc(Cl)c2)N(C)C(=O)[C@H](C(C)C)NC(=O)[C@H](C)NC(=O)CSC[C@@H](C(=O)NCCOCCOCCOCCOCCC(N)=O)NC(=O)[C@H](Cc2ccc(O)cc2)N(C)C(=O)[C@H](Cc2cccc(C(=O)O)c2)NC(=O)[C@H](CCCNC(=N)N)NC(=O)[C@H](CCCNC(=N)N)NC(=O)[C@H]([C@@H](C)CC)NC1=O [compound 81] ({CH2CO}-AV[NMePhe(3-Cl)]V[Trp(1-CH2COOH)]N[3Pal(6-NH2)]Y(Carboxymethyl)IIRR[Phe(3-COOH)][NMeY]C[PEG4]-NH2; thioether N-15) |

From patent US20260116920A1, “HUMAN TRANSFERRIN RECEPTOR BINDING PEPTIDE” (PEPTIDREAM INC., priority 2021, published 2026)
